# From patent US20190211099A1, “METHODS AND COMPOSITIONS FOR TREATING CANCER WITH SIGLEC-9 ACTIVITY MODULATORS” (KING'S COLLEGE LONDON, priority 2016, published 2019)
# What was measured:
# Siglec-9 = Siglec-9 (Homo sapiens, UniProt Q9Y336); assay: Binding of biotinylated MUC1 glycoforms to plate-bound recombinant Siglec fusion proteins; details: 2 μg/ml biotinylated MUC1 glycoform, 4 hours; compared with Siglecs 3, 7 and 10
# Experimental: Binding was enhanced when cells were pre-treated with 0.04 U/ml neuraminidase for 30 minutes at 37° C. in PBS (FIG. 3C), which removes competing cis-binding sialic acid sites from the surface of the cells. As this pattern is characteristic of binding to Siglecs (Macauley et al. (2014) NAT. REV. IMMUNOL. 14: 653-666), MUC1-ST binding to Siglecs was tested as follows: mouse anti human IgG was bound to plastic O/N and the plate was blocked using 1% BSA in PBS. Recombinant human Siglec (3, 5, 7, 8, 9 and 10) fusion proteins were added at 2 μg/mL for 2 hours. After incubation with 2 μg/ml biotinylated MUC1 glycoforms for 4 hours, O.D. was measured after the addition of streptavidin-HRP and substrate. […] Although Siglecs 3, 7 and 9 are expressed by monocytes and macrophages (FIG. 3D), a blocking antibody to Siglec-9 inhibited 80-95% of the MUC1-ST binding to these cells (FIGS. 2G-2I, 3E, and 5) indicating this is the dominant binding Siglec. […] Importantly, Siglec-9 bound to the breast cancer cell line T47D that expresses MUC1 carrying sialylated Core-1 glycans (FIG. 2J). Finally, isolated monocytes were bound to 10 μg/mL biotinylated MUC1-ST or 10 μg/mL biotinylated polyacrylamide carrying the ST glycan (PAA-ST; Glycotech).
# [1] = system: M-CSF macrophages differentiated with LPS and IFNγ; assay: Differentiation of monocytes into M(LPS+IFNγ) macrophages: CD86 and IL-12; assay type: cell-based, human; details: MUC1-ST added at day 1 of the culture
# Experimental: Both the cell phenotype staining and neutralization studies described in the Examples were performed using the following antibodies (all anti-human): Siglec-9 (Biotechne; 191240), Siglec-9 FITC (Biotechne; 191240), Siglec-3 (Biotechne; 6C5/2), Siglec-7 (Biotechne; AF1138), Siglec-3 FITC (BD; P67.6), Siglec-7 PE (Biolegend; 6-434), Siglec-10 PE (Biolegend; 5G6), Siglec-1 (abcam; 7D2), HLA-DR FITC (Beckman Coulter; IM0463U), CD16 FITC (Biolegend; B73.1), CD14 FITC (BD 555397), CD69 PE (Beckman Coulter; IM1943), CD25 FITC (ABX228FITC), CD86 PE (Beckman Coulter; IM2729U), CD40 FITC (BD 555588), CD83 PE (Beckman Coulter; IM2218), CD163 PE (Biolegend; GHI/61), CXCR1 FITC (BD Pharmongen; 551126), CD45 PC5 (Beckman Coulter; IM2653U), CD206 PE (ebioscience; 19.2), PD-L1 PE (Biolegend; 29E.2A3), CD36 (Santa Cruz; H-300), TGFbetaRII (Bio-Techne; AF-241), IL-6Rα (Tocilizumab; Roche. A generous gift from Dr. Valerie Corrigall). […] At least 1×10^4 events were evaluated using either Epics XL, (Beckman Coulter) or FACSCalibur (BD Biosciences) flow cytometers. […]
# Given that IL-6 and NO are known differentiation modulators (Oosterhoff et al. (2012) ONCOIMMUNOLOGY 1: 649-658; Bogdan (2015) TREND IMMUNOL. 36: 161-178) the effects of MUC1-ST on the differentiation of monocytes into macrophages was assessed. […]
# [2] = system: monocyte derived dendritic cells; assay: Differentiation of monocytes into dendritic cells; assay type: cell-based, human; details: MUC1-ST on day 0
# Experimental: To differentiate monocytes into macrophages, CD14+ cells were plated at a concentration of 1×10^6/mL in AIM V medium (Lonza) with either 50 ng/mL recombinant human M-CSF or 50 ng/mL recombinant human GM-CSF (Bio-Techne). The cytokines were added every 3 days. The cells were incubated at 37° C., 5% CO2 for 7 days to fully differentiate, before being characterized as macrophages via phenotypic flow cytometric analysis. To differentiate monocytes into dendritic cells (moDC), CD14+ cells were plated at a concentration of 1×10^6/mL in AIM V medium with 1500 U/mL recombinant human IL-4 (Bio-Techne) and 400 U/mL human GM-CSF (Bio-Techne) for 6 days to fully differentiate, before being characterized as immature DCs via phenotypic flow cytometric analysis (Epics XL, Beckman Coulter or FACSCalibur, BD Biosciences plus WinMDI or Cellquest software). MoDCs were matured using 1 μg/mL LPS for 24 hours.
# In addition, the effects of MUC1-ST on the differentiation of monocytes into dendritic cells were assessed. Briefly, monocytes were treated with MUC1-ST on day 0 and differentiated into immature dendritic cells (DCs) using IL-4 (1500 U/mL) and GM-CSF (400 U/mL) in AIM-V media for 6 days. Immature DCs were matured using 1 μg/mL LPS for 24 hours. […]
# Sequence of Siglec-9 (Q9Y336 with tags, fused parts or gaps limits assumed): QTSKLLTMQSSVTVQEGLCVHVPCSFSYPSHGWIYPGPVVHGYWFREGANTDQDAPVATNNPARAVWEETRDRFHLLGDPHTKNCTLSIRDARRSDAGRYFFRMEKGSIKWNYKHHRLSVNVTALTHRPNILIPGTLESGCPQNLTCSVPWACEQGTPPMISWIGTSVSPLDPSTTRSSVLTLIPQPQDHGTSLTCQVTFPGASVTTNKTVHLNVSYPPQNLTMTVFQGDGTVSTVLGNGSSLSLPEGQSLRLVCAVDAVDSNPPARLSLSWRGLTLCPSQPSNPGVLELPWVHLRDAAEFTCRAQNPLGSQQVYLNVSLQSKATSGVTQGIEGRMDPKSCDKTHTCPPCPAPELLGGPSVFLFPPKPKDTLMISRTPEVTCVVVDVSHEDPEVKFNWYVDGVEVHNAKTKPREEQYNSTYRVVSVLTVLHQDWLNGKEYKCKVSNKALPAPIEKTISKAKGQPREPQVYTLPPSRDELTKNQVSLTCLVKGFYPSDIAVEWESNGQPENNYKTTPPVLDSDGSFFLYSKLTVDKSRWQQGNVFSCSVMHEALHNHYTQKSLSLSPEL
substance,measurement,setting,value
"NeuAcα2,3Galβ1-3GalNAc linked via a Ser/Thr of MUC1 [MUC1-ST]",binding to recombinant Siglec fusion protein,Siglec-9,greatest binding
same,levels of CD86 and IL-12,[1],lower levels
same,levels of CD86 (immature DCs) and of CD86 and CD83 (matured DCs),[2],lower levels
